± gives the expanded uncertainty stated by the source.
What was measured:
[1] = Molar enthalpy of transition or fusion; conditions: Crystal; DSC
[2] = Crystal; DTA

SMILES | Molar enthalpy of transition or fusion [1] [kJ/mol] | Normal melting temperature [2] [°C]
CC(=O)c1ccc(NC2=NCCC3(CCCCC3)S2)cc1 | 32.5 ± 1.2 | 163.5 ± 0.5
CC(C)c1ccc(NC2=NCCC3(CCCCC3)S2)cc1 | 29.2 ± 1.2 | 139.6 ± 0.5
Cc1ccc(NC2=NCCC3(CCCCC3)S2)cc1Cl | 33.2 ± 1.2 | 149.2 ± 0.5
FC(F)(F)c1ccc(NC2=NCCC3(CCCCC3)S2)cc1 | 32.9 ± 1.2 | 149.7 ± 0.5
O=C(NC1=NCCC2(CCCCC2)S1)c1ccccc1 [N-(1-thia-3-azaspiro[5.5]undec-2-en-2-yl)benzamide] | 27.9 ± 1.2 | 130.2 ± 0.5
Brc1ccc(NC2=NCCC3(CCCCC3)S2)cc1 [N-(4-bromophenyl)-1-thia-3-azaspiro[5.5]undec-2-en-2-amine] | 44.3 ± 1.3 | 175.2 ± 0.5
Clc1ccc(NC2=NCCC3(CCCCC3)S2)cc1 [N-(4-chlorophenyl)-1-thia-3-azaspiro[5.5]undec-2-en-2-amine] | 27.9 ± 1.2 | 162.6 ± 0.5
CCc1ccc(NC2=NCCC3(CCCCC3)S2)cc1 [N-(4-ethylphenyl)-1-thia-3-azaspiro[5.5]undec-2-en-2-amine] | 42.8 ± 1.3 | 139.4 ± 0.5
COc1ccc(NC2=NCCC3(CCCCC3)S2)cc1 [N-(4-methoxyphenyl)-1-thia-3-azaspiro[5.5]undec-2-en-2-amine] | 29.3 ± 1.2 | 115.4 ± 0.5
Cc1ccc(NC2=NCCC3(CCCCC3)S2)cc1 [N-(4-methylphenyl)-1-thia-3-azaspiro[5.5]undec-2-en-2-amine] | 41.9 ± 1.3 | 108.2 ± 0.5
c1ccc(NC2=NCCC3(CCCCC3)S2)cc1 [N-phenyl-1-thia-3-azaspiro[5.5]undec-2-en-2-amine] | 21.6 ± 1.1 | 113.4 ± 0.5

Reference: the NIST ThermoML archive (doi:10.1021/je300143a)
